{
  "source": "patent US20130072531A1",
  "about": "“SOLID DISPERSION COMPRISING AN ANTI-HIV AGENT” (AiCuris GmbH & Co. KG, priority 2009, published 2013)",
  "key": {"[1]": {"assay": "Solubility studies: dissolution, paddle method, sodium laurylsulphate 0.5% (w/v) medium", "format": "physicochemical", "description": "The compound of formula (I) both in crystalline form and spray dried (at T0 and after 3 weeks […]) storage at 25° C., 60% RH and 40° C., 75% RH respectively) as well as the solid dispersions of Examples 1 to 4 (at T0 and after 2 weeks […]) storage at 25° C., 60% RH and 40° C., 75% RH respectively) and Example 5 at T0 only were introduced in a VK 7000 dissolution system (VanKel, New Jersey, USA), using the paddle method, combined with a VK 8000 automatic sampling station (n=3). Sodium laurylsulphate 0.5% (w/v) was used as dissolution medium. The temperature of the medium (900 ml) was kept at 37±0.5 ° C., while the rotational speed of the paddles was set at 100 rpm. Samples (filtered using Full Flow Filters (Varian) -35 μm) of 5 ml were withdrawn at 5, 10, 15, 20, 30, 45 and 60 min and spectrophotometrically analysed at 240 nm by UV-spectrophotometry, type UV-1650 (Shimadzu, Deurne, Belgium) (w/w dilution if necessary), using an appropriate calibration curve. Each vessel contained approximately 150 mg of the compound of formula (I)."}, "[2]": {"assay": "X-ray diffraction of solid dispersions at T0 and after storage", "format": "physicochemical", "settings": "after 3 weeks at 40° C., 75% RH", "description": "The spray dried particles were collected in a reservoir attached to a cyclone, cooled down to room temperature and stored in sealed vials (room temperature, ambient relative humidity (RH)) prior to their characterisation at T0. After characterisation at T0, the spray dried solids were stored in open vials for 2 weeks (3 weeks for Comparative Example 1) in desiccators at 25° C., 60% RH and 40° C., 75% RH. X-ray diffraction (D-500, Siemens, Germany) with CuKα radiation (0.154 nm) was performed on physical mixtures of the compound of formula (I) with HPMC ES, HPC LF, HPMCP HP-50 and PVP K30 and the corresponding solid dispersions (at T0 and after 2 weeks […]) storage at both conditions), as well as spray dried compound of formula (I) without polymer (storage for three weeks under the two conditions). The angular range (2θ) varied from 15 to 60° with steps of 0.02° and the measuring time was 1 s/step."}, "[3]": {"assay": "Storage experiments, visual inspection", "format": "physicochemical", "settings": "open vials, 2 weeks (3 weeks Comparative Example 1), 25° C., 60% RH and 40° C., 75% RH", "description": "The spray dried particles were collected in a reservoir attached to a cyclone, cooled down to room temperature and stored in sealed vials (room temperature, ambient relative humidity (RH)) prior to their characterisation at T0. After characterisation at T0, the spray dried solids were stored in open vials for 2 weeks (3 weeks for Comparative Example 1) in desiccators at 25° C., 60% RH and 40° C., 75% RH."}, "[4]": {"system": "wild-type and resistant HIV strains", "assay": "Activity against HIV strains (experiences so far)"}, "[5]": {"assay": "Water solubility of crystals (experiences so far)", "format": "physicochemical"}},
  "data": [
    {"smiles": "O=C1CN(C(=O)c2cc(-c3cc(F)cc(Cl)c3)n(-c3ccc(F)c(Cl)c3)n2)CN1", "note": "[Comparative Example 1]", "values": [
      {"measurement": "compound of formula (I) dissolved after 60 minutes after storage", "setting": "[1]; after storage at 40° C., 75% RH for three weeks, 60 min", "result": 35, "unit": "%"},
      {"measurement": "compound of formula (I) dissolved / released after 30 minutes", "setting": "[1]; fresh (T0), sodium laurylsulphate 0.5% (w/v), 900 ml, 37 °C, 100 rpm, 30 min", "result": "about 60%"},
      {"measurement": "formation of the crystalline form of the compound of formula (I) (X-ray)", "setting": "[2]", "result": "formation of a large amount of the crystalline form"},
      {"measurement": "storage stability to visual inspection (colouration)", "setting": "[3]", "result": "storage stable"}
    ]},
    {"smiles": "O=C1CN(C(=O)c2cc(-c3cc(F)cc(Cl)c3)n(-c3ccc(F)c(Cl)c3)n2)CN1", "note": "[compound of formula (I)]", "values": [
      {"measurement": "compound of formula (I) dissolved / released after 60 minutes", "setting": "[1]; fresh (T0), sodium laurylsulphate 0.5% (w/v), 900 ml, 37 °C, 100 rpm, 60 min", "result": "about 40%"},
      {"measurement": "activity against wild-type and resistant HIV strains", "setting": "[4]", "result": "highly active"},
      {"measurement": "water solubility of crystals", "setting": "[5]", "result": "only sparingly water-soluble"}
    ]}
  ]
}
